Test results reported in ChEMBL document CHEMBL1201862, “PubChem BioAssay data set” (2004).
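Dose response: 5 concentrations. Exposure: 48 h. Format: 96-well plates. Endpoint: linear interpolation; highest concentration if not reached. GI50 marks 50% less growth.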 Calls of active or inactive are those of the source. Cut-off read from the data, not from the text of the source: active = GI50 up to about 1.1 µM and inactive = higher.

What was measured:
Assay in all cases: inhibition of tumour cell growth, NCI panel, 48 h
A498 = system: A498
ACHN = system: ACHN
CCRF-CEM = system: CCRF-CEM
HCT-116 = system: HCT-116
HCT-15 = system: HCT-15
HOP-92 = system: HOP-92
IGROV-1 = system: IGROV-1
K562 = system: K562
MCF7 = system: MCF7
Malme-3M = system: Malme-3M
NCI-H522 = system: NCI-H522
PC-3 = system: PC-3
SF-295 = system: SF-295
SF-539 = system: SF-539
SN12C = system: SN12C
SNB-19 = system: SNB-19
T47D = system: T47D
UACC-257 = system: UACC-257
UACC-62 = system: UACC-62
UO-31 = system: UO-31

SMILES | GI50 (A498) | GI50 (ACHN) | GI50 (CCRF-CEM) | GI50 (HCT-116) | GI50 (HCT-15) | GI50 (HOP-92) | GI50 (IGROV-1) | GI50 (K562) | GI50 (MCF7) | GI50 (Malme-3M) | GI50 (NCI-H522) | GI50 (PC-3) | GI50 (SF-295) | GI50 (SF-539) | GI50 (SN12C) | GI50 (SNB-19) | GI50 (T47D) | GI50 (UACC-257) | GI50 (UACC-62) | GI50 (UO-31)
CC[C@@H]1/C=C/C=C/C[C@H](C)[C@@H](O)[C@](C)(O)C(=O)[C@H](C)[C@@H](O)[C@H](C)C(=O)[C@H](C)[C@@H](O)[C@H](C)/C=C/C(=O)O[C@H]2[C@@H](C)[C@@H](CC1)O[C@]1(O[C@H](CC(C)O)[C@H](C)CC1=O)[C@@H]2C (stereo not given in full) | 108 nM (active) | 2650 nM (inactive) | 3560 nM (inactive) | 2620 nM (inactive) | 3280 nM | 4230 nM (inactive) | 5220 nM (inactive) | < 2.5 nM (active) | < 2.5 nM (active) | 4930 nM (inactive) | < 2.5 nM (active) | < 2.5 nM (active) | < 2.5 nM (active) | 4410 nM (inactive) | 3740 nM (inactive) | < 2.5 nM (active) | < 2.5 nM (active) | < 2.5 nM (active) | 3220 nM (inactive) | 2810 nM (inactive)
C=C1C(=O)O[C@H]2[C@H](OC(C)=O)[C@@H](C)CCC/C(C)=C/CC[C@@]3(C)O[C@@H]3C[C@@H]12 | 3560 nM (inactive) | 1720 nM (inactive) | 661 nM (active) | 2230 nM (inactive) | 2310 nM | 1920 nM (inactive) | 2770 nM (inactive) | 3030 nM (inactive) | 2310 nM (inactive) | 16000 nM (inactive) | 1780 nM (inactive) | 5250 nM (inactive) | 13200 nM (inactive) | 1950 nM (inactive) | 1610 nM (inactive) | 13600 nM (inactive) | 1600 nM (inactive) | 5060 nM (inactive) | 4110 nM (inactive) | 2900 nM (inactive)
Brc1ccc2[nH]cc(-c3nc(-c4c[nH]c5ccccc45)cs3)c2c1 | 2880 nM (inactive) | 2430 nM (inactive) | 3790 nM (inactive) | 2530 nM (inactive) | 2390 nM | 2540 nM (inactive) | 1580 nM (inactive) | 2950 nM (inactive) | 2800 nM (inactive) | 3170 nM (inactive) | 1910 nM (inactive) | 3110 nM (inactive) | 2840 nM (inactive) | 2900 nM (inactive) | 3490 nM (inactive) | 3510 nM (inactive) | 3680 nM (inactive) | 3970 nM (inactive) | 2370 nM (inactive) | 2970 nM (inactive)
COc1cc(C(c2c(O)c3ccccc3oc2=O)c2c(O)c3ccccc3oc2=O)ccc1O | 51900 nM (inactive) | 22600 nM (inactive) | 28800 nM (inactive) | 34000 nM (inactive) | 17400 nM | 14600 nM (inactive) | 11300 nM (inactive) | 39400 nM (inactive) | 19300 nM (inactive) | 19000 nM (inactive) | 20800 nM (inactive) | 33700 nM (inactive) | 35100 nM (inactive) | 23300 nM (inactive) | 19100 nM (inactive) | 26800 nM (inactive) | 17900 nM (inactive) | 19100 nM (inactive) | 18500 nM (inactive) | 25100 nM (inactive)
C=C(Cl)[C@](Cl)(CBr)CC[C@@H](Br)C(C)(C)Cl [HALOMON] | 1970 nM (inactive) | 1010 nM (active) | 14400 nM (inactive) | 392 nM (active) | 2010 nM | 378 nM (active) | 6670 nM (inactive) | 916 nM (active) | 822 nM (active) | 11500 nM (inactive) | 15500 nM (inactive) | 319 nM (active) | 1020 nM (active) | 562 nM (active) | 3230 nM (inactive) | 1460 nM (inactive) | 3180 nM (inactive) | 1400 nM (inactive) | 3190 nM (inactive) | 959 nM (active)
